Assays:
LD1 and LD5 = assay: Screening of amphiphiles for ability to discriminate between LD1 and LD5; conditions: range of amphiphile concentrations; relative activity vs buffer
Experimental: A series of solutions was prepared covering a range of concentrations for each amphiphile to be tested. The activities of both LD1 and LD5 were determined in the presence of the various concentrations of each amphiphile and compared with enzyme activities in buffer (relative activity).
Enzyme activity in the presence and absence of amphiphile was measured by the following procedure: Stock solutions of NADH (4 mM) and pyruvate (40 mM) were prepared daily in 30 mM sodium phosphate buffer, pH 7.4. Enzyme solutions were prepared daily by withdrawing 5 μl of the stock enzyme solutions with a Hamilton syringe and diluting to 5 ml with 30 mM sodium phosphate buffer. (The resulting solution contains approximately 5 U of enzyme/ml.) The enzyme assay was run by pipetting 2.7 ml of buffer or buffer surfactant solution into a 10 mm path length quartz cuvette, and 100 μl each of NADH and pyruvate stock solutions were added. […] Enzyme solution was added with good mixing; the absorbance decrease at 340 nm was measured as a function of time. The rate of the reaction was determined by measuring the slope of the initial absorbance decrease, i.e., within the first 50 seconds of the reaction.

LD1 [1] = molecular target: LD1 (Sus scrofa, UniProt P00336); assay: Effect of cationic amphiphiles on the activity of LDH isoenzymes (Table 1); assay type: biochemical; conditions: 30 mM sodium phosphate buffer pH 7.4, 25° C.; read-out: Amphiphile conc. Req'd for 50% Inactivation of Specified Isoenzyme (LD1)
Experimental: (§1) The assay for LDH activity in both the absence and presence of surfactant was conducted as follows. […] The resulting solution contains approximately 5 units/ml. […] To the equilibrated solution […]. of the enzyme solution was added, and the cuvette was rapidly shaken while covering the top of the cuvette with a small piece of Parafilm® and placed back into the spectrophotometer.
(§2) Amphiphile solutions were prepared by weighing out a given amount of amphiphile, e.g., 100 mg, and preparing a stock solution in 30 mM sodium phosphate buffer in 100 ml. volumetric flask. Solutions of lower amphiphile concentration were prepared by making the appropriate dilutions from the stock solution.
A number of cationic amphiphiles were investigated for specific inactivation of LD1 in the presence of LD5 and these compounds are listed in Table 1.

[2] = molecular target: T1, LDH isoenzymes (LD5 in the presence of LD1) (Oryctolagus cuniculus, UniProt P13491); assay: Anionic amphiphiles tested for specific interaction with LDH isoenzymes (Table 2); assay type: biochemical
T1 construct: LD1 (LDHB tetramer) only as comparison
Experimental: as §1, §2
A number of anionic amphiphiles were investigated for specific inactivation of LD5 in the presence of LD1 and these compounds are listed in Table 2.

LD1 [3] = assay: LDH activity assay with amphiphile, LDH isoenzymes; assay type: biochemical, porcine; conditions: FIG. 12
Experimental: 3. Beef heart LDH (Sigma Chemical Co., Type III), rabbit muscle LDH (Sigma Chemical Co., Type V) and porcine LDH, LD1, LD2, LD3, LD4 and LD5 in the form of ammonium sulfate suspensions were used for these examples.
as §1, §2

LD1 (Sus scrofa, UniProt P00336), sequence (P00336 whole entry): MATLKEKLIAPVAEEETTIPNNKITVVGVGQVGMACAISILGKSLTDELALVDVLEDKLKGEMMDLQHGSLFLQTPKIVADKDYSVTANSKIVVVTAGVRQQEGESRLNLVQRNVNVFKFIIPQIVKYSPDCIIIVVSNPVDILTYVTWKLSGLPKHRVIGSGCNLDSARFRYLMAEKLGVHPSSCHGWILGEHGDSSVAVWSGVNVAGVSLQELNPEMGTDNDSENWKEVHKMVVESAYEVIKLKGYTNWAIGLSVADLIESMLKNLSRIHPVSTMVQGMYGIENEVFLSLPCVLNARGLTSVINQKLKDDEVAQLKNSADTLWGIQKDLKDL

Compound | Effectiveness (LDH isoenzyme inhibition specificity, LD1 vs LD5) (LD1 and LD5) | further results
CCCCCCCCCCCC(=O)[O-].[Na+] [Sodium dodecanoate] | 0 | –
CCCCCCCCOS(=O)(=O)[O-].[Na+] [Sodium octyl sulfate] | + | –
CCCCCCCCCCCCCCCCCC(=O)[O-].[Na+] [Sodium stearate] | 0 | –
CCCCCCCCCCCCCCOS(=O)(=O)[O-].[Na+] [Sodium tetradecylsulfate] | ++ | –
CCCCCCCC[N+](CCC)(CCCCCCCC)CCCCCCCC.[Br-] [Trioctylpropylammonium bromide] | 0 | IC50 (LD1 [1]): 1600 µM
C[C@H](CCC(=O)O)[C@H]1CC[C@H]2[C@@H]3C(=O)C[C@@H]4CC(=O)CC[C@]4(C)[C@H]3CC(=O)[C@]12C [dehydrocholic acid] | – | Interaction (specific inactivation of LD5 in the presence of LD1) [2]: no effect
CCCCCCCCCCCC(=O)O [lauric acid] | – | Interaction (specific inactivation of LD5 in the presence of LD1) [2]: no effect
CCCCCCCCCCCCCCCCCC(=O)[O-].[Li+] [lithium stearate] | – | Interaction (specific inactivation of LD5 in the presence of LD1) [2]: no effect
Heparin | + | inactivation of LD1 compared with LD5 (LD1 [3]): LD1 is more inactivated than LD5
Sodium isopropylnaphthalene sulfonate | + | –
Sodium n-decyldiphenylether disulfonate | ++ | –
octylphenolpoly(1-oxapropene)oxaethane carboxylic acid sodium salt | 0 | –
